Test results taken from the supplement of paper PMC10307832.

What was measured:
Experiment in all cases: relative viability (nuclei count vs DMSO), 5 days (fraction); higher = more cells survive
R406 + Navitoclax = compound: COc1cc(Nc2ncc(F)c(Nc3ccc4c(n3)NC(=O)C(C)(C)O4)n2)cc(OC)c1OC [R406] + CC1(C)CCC(c2ccc(Cl)cc2)=C(CN2CCN(c3ccc(C(=O)NS(=O)(=O)c4ccc(N[C@H](CCN5CCOCC5)CSc5ccccc5)c(S(=O)(=O)C(F)(F)F)c4)cc3)CC2)C1 [Navitoclax] (partner 0.5 µM)
In short: (§1)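 Lung cancer cell lines in 1536-well plates were dosed by pin tool the day after seeding, either with one drug alone or with a fixed anchor-drug dose plus five library-drug doses (not always all listed) in √10 steps. After 5 days, cells were fixed and their nuclei stained in one step (final 0.05% Triton X-100, 1% formaldehyde, 1 ug/ml Hoechst), then counted on 4× images. Relative viability is the nuclei count in treated wells divided by that in vehicle wells. Values are medians of duplicate plates.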

R406 + Lapatinib = compound: COc1cc(Nc2ncc(F)c(Nc3ccc4c(n3)NC(=O)C(C)(C)O4)n2)cc(OC)c1OC [R406] + CS(=O)(=O)CCNCc1ccc(-c2ccc3ncnc(Nc4ccc(OCc5cccc(F)c5)c(Cl)c4)c3c2)o1 [Lapatinib] (partner 2 µM)
In short: as §1

Daporinad + Luminespib = compound: O=C(/C=C/c1cccnc1)NCCCCC1CCN(C(=O)c2ccccc2)CC1 [Daporinad] + CCNC(=O)c1noc(-c2cc(C(C)C)c(O)cc2O)c1-c1ccc(CN2CCOCC2)cc1 [Luminespib] (partner 0.01 µM)
In short: as §1

Daporinad + Dasatinib = compound: O=C(/C=C/c1cccnc1)NCCCCC1CCN(C(=O)c2ccccc2)CC1 [Daporinad] + Cc1nc(Nc2ncc(C(=O)Nc3c(C)cccc3Cl)s2)cc(N2CCN(CCO)CC2)n1 [Dasatinib] (partner 0.075 µM)
In short: as §1

With EMC-BAC-2 as the cell line, how does the relative viability (R406 + Navitoclax; first compound 0.08 µM) read?
The relative viability was 1.11.

And the relative viability (R406 + Navitoclax; first compound 0.253 µM)?
The relative viability was 1.38.

What about the relative viability (R406 + Navitoclax; first compound 0.8 µM) of the same cell line?
Its relative viability is 1.31.

And the relative viability (R406 + Navitoclax; first compound 2.53 µM)?
Its relative viability is 1.12.

And the relative viability (R406 + Navitoclax; first compound 8 µM)?
The relative viability was 0.917.

What about the relative viability (R406 + Lapatinib; first compound 0.08 µM) of the same cell line?
Its relative viability is 0.888.

What about the relative viability (R406 + Lapatinib; first compound 0.253 µM) of the same cell line?
Its relative viability is 0.963.

What about the relative viability (R406 + Lapatinib; first compound 0.8 µM) of the same cell line?
The relative viability was 0.93.

What about the relative viability (R406 + Lapatinib; first compound 2.53 µM) of the same cell line?
Its relative viability is 0.921.

What about the relative viability (R406 + Lapatinib; first compound 8 µM) of the same cell line?
Its relative viability is 0.806.

And the relative viability (Daporinad + Luminespib; first compound 0.0005 µM)?
Its relative viability is 1.19.

What about the relative viability (Daporinad + Luminespib; first compound 0.001581 µM) of the same cell line?
The relative viability was 1.22.

What about the relative viability (Daporinad + Luminespib; first compound 0.005 µM) of the same cell line?
Its relative viability is 1.25.

What about the relative viability (Daporinad + Luminespib; first compound 0.01581 µM) of the same cell line?
Its relative viability is 0.331.

And the relative viability (Daporinad + Dasatinib; first compound 0.0005 µM)?
Its relative viability is 0.359.

What about the relative viability (Daporinad + Dasatinib; first compound 0.001581 µM) of the same cell line?
The relative viability was 0.362.

What about the relative viability (Daporinad + Dasatinib; first compound 0.005 µM) of the same cell line?
Its relative viability is 0.387.

And the relative viability (Daporinad + Dasatinib; first compound 0.01581 µM)?
Its relative viability is 0.319.

For NCI-H1993, which relative viability (R406 + Navitoclax; first compound 0.08 µM) is on record?
The relative viability was 0.974.

What about the relative viability (R406 + Navitoclax; first compound 0.253 µM) of the same cell line?
Its relative viability is 0.98.

And the relative viability (R406 + Navitoclax; first compound 0.8 µM)?
Its relative viability is 0.848.

What about the relative viability (R406 + Navitoclax; first compound 2.53 µM) of the same cell line?
The relative viability was 0.78.

What about the relative viability (R406 + Navitoclax; first compound 8 µM) of the same cell line?
The relative viability was 0.7.

What about the relative viability (R406 + Lapatinib; first compound 0.08 µM) of the same cell line?
Its relative viability is 0.882.

And the relative viability (R406 + Lapatinib; first compound 0.253 µM)?
Its relative viability is 0.964.

What about the relative viability (R406 + Lapatinib; first compound 0.8 µM) of the same cell line?
The relative viability was 0.829.

What about the relative viability (R406 + Lapatinib; first compound 2.53 µM) of the same cell line?
The relative viability was 0.43.

And the relative viability (R406 + Lapatinib; first compound 8 µM)?
The relative viability was 0.646.

And the relative viability (Daporinad + Luminespib; first compound 0.0005 µM)?
Its relative viability is 0.795.

And the relative viability (Daporinad + Luminespib; first compound 0.001581 µM)?
The relative viability was 0.797.

And the relative viability (Daporinad + Luminespib; first compound 0.005 µM)?
Its relative viability is 0.787.

And the relative viability (Daporinad + Luminespib; first compound 0.01581 µM)?
The relative viability was 0.891.

What about the relative viability (Daporinad + Dasatinib; first compound 0.0005 µM) of the same cell line?
Its relative viability is 0.548.

And the relative viability (Daporinad + Dasatinib; first compound 0.001581 µM)?
The relative viability was 0.481.

And the relative viability (Daporinad + Dasatinib; first compound 0.005 µM)?
Its relative viability is 0.664.

And the relative viability (Daporinad + Dasatinib; first compound 0.01581 µM)?
The relative viability was 0.676.

How did the relative viability (R406 + Navitoclax; first compound 0.08 µM) turn out when NCI-H596 was run?
The relative viability was 0.836.

What about the relative viability (R406 + Navitoclax; first compound 0.253 µM) of the same cell line?
Its relative viability is 1.04.

What about the relative viability (R406 + Navitoclax; first compound 0.8 µM) of the same cell line?
The relative viability was 1.16.

And the relative viability (R406 + Navitoclax; first compound 2.53 µM)?
Its relative viability is 0.72.

What about the relative viability (R406 + Navitoclax; first compound 8 µM) of the same cell line?
The relative viability was 0.115.

And the relative viability (R406 + Lapatinib; first compound 0.08 µM)?
The relative viability was 1.04.

And the relative viability (R406 + Lapatinib; first compound 0.253 µM)?
The relative viability was 1.2.

And the relative viability (R406 + Lapatinib; first compound 0.8 µM)?
The relative viability was 0.972.

And the relative viability (R406 + Lapatinib; first compound 2.53 µM)?
Its relative viability is 0.867.

What about the relative viability (R406 + Lapatinib; first compound 8 µM) of the same cell line?
Its relative viability is 0.421.

And the relative viability (Daporinad + Luminespib; first compound 0.0005 µM)?
The relative viability was 0.919.

And the relative viability (Daporinad + Luminespib; first compound 0.001581 µM)?
Its relative viability is 1.04.

And the relative viability (Daporinad + Luminespib; first compound 0.005 µM)?
The relative viability was 1.05.

And the relative viability (Daporinad + Luminespib; first compound 0.01581 µM)?
Its relative viability is 0.479.

What about the relative viability (Daporinad + Dasatinib; first compound 0.0005 µM) of the same cell line?
The relative viability was 0.68.

And the relative viability (Daporinad + Dasatinib; first compound 0.001581 µM)?
Its relative viability is 0.677.

What about the relative viability (Daporinad + Dasatinib; first compound 0.005 µM) of the same cell line?
Its relative viability is 0.692.

What about the relative viability (Daporinad + Dasatinib; first compound 0.01581 µM) of the same cell line?
The relative viability was 0.576.

For NCI-H1792, which relative viability (R406 + Navitoclax; first compound 0.08 µM) is on record?
The relative viability was 0.536.

And the relative viability (R406 + Navitoclax; first compound 0.253 µM)?
Its relative viability is 0.804.

What about the relative viability (R406 + Navitoclax; first compound 0.8 µM) of the same cell line?
The relative viability was 0.89.

And the relative viability (R406 + Navitoclax; first compound 2.53 µM)?
The relative viability was 0.6.

And the relative viability (R406 + Navitoclax; first compound 8 µM)?
The relative viability was 0.582.

What about the relative viability (R406 + Lapatinib; first compound 0.08 µM) of the same cell line?
The relative viability was 0.844.

What about the relative viability (R406 + Lapatinib; first compound 0.253 µM) of the same cell line?
The relative viability was 1.1.

And the relative viability (R406 + Lapatinib; first compound 0.8 µM)?
Its relative viability is 1.06.

What about the relative viability (R406 + Lapatinib; first compound 2.53 µM) of the same cell line?
Its relative viability is 0.776.

And the relative viability (R406 + Lapatinib; first compound 8 µM)?
Its relative viability is 0.765.

And the relative viability (Daporinad + Luminespib; first compound 0.001581 µM)?
The relative viability was 0.443.

And the relative viability (Daporinad + Luminespib; first compound 0.005 µM)?
Its relative viability is 0.347.

And the relative viability (Daporinad + Luminespib; first compound 0.01581 µM)?
The relative viability was 0.604.

What about the relative viability (Daporinad + Dasatinib; first compound 0.0005 µM) of the same cell line?
Its relative viability is 0.617.

What about the relative viability (Daporinad + Dasatinib; first compound 0.001581 µM) of the same cell line?
The relative viability was 0.815.

What about the relative viability (Daporinad + Dasatinib; first compound 0.005 µM) of the same cell line?
Its relative viability is 0.477.

What about the relative viability (Daporinad + Dasatinib; first compound 0.01581 µM) of the same cell line?
Its relative viability is 0.921.

What does the source list for SW 1573?
relative viability (R406 + Navitoclax; first compound 0.08 µM): 0.956; relative viability (R406 + Navitoclax; first compound 0.253 µM): 1.1; relative viability (R406 + Navitoclax; first compound 0.8 µM): 1.2; relative viability (R406 + Navitoclax; first compound 2.53 µM): 0.794; relative viability (R406 + Navitoclax; first compound 8 µM): 0.5; relative viability (R406 + Lapatinib; first compound 0.08 µM): 1.13; relative viability (R406 + Lapatinib; first compound 0.253 µM): 1.22; relative viability (R406 + Lapatinib; first compound 0.8 µM): 1.14; relative viability (R406 + Lapatinib; first compound 2.53 µM): 1.27; relative viability (R406 + Lapatinib; first compound 8 µM): 0.825; relative viability (Daporinad + Luminespib; first compound 0.0005 µM): 0.207; relative viability (Daporinad + Luminespib; first compound 0.001581 µM): 0.737; relative viability (Daporinad + Luminespib; first compound 0.005 µM): 0.207; relative viability (Daporinad + Luminespib; first compound 0.01581 µM): 0.296; relative viability (Daporinad + Dasatinib; first compound 0.0005 µM): 0.339; relative viability (Daporinad + Dasatinib; first compound 0.001581 µM): 0.801; relative viability (Daporinad + Dasatinib; first compound 0.005 µM): 0.446; relative viability (Daporinad + Dasatinib; first compound 0.01581 µM): 0.367
